Reference: patent US9593149B2, “Amylin and calcitonin receptor agonist” (Novo Nordisk A/S, priority 2014, dated 2017)
Converted amounts (≈) assume the structure as drawn. Numbered stars: 1 amine (or outer) side, 2 acyl side, 3 side chain; on linkers, the order of the positions; unused ones are H or OH. Peptide text beside a SMILES is read from it. * marks the point of attachment. C20 diacid = O=C(O)CCCCCCCCCCCCCCCCCCC(=O)*; C18 diacid = O=C(O)CCCCCCCCCCCCCCCCC(=O)*; γGlu = O=C(O)[C@H](CCC(=O)[*:2])N[*:1]

Test: Assay (IV) determination of solubility
Type: physicochemical
Method: Assay (IV)—Determination of Solubility
The mimylin peptide was dissolved in water at ˜500 nmol/ml and mixed 1:1 with a series of buffers (100 mM glycylglycine pH 3.0, 100 mM glycylglycine pH 4.0, 100 mM glycylglycine pH 5.0, 100 mM bistrispropane pH 6.0, 100 mM bistrispropane pH 6.5, 100 mM bistrispropane pH 7.0, 100 mM bistrispropane pH 7.5, 100 mM bistrispropane pH 8.0).

SMILES | Solubility (pH 3.0) | solubility at 18 h (pH 6.0) [µM] | Solubility (pH 6.5) | Solubility (pH 7.0) | Solubility (pH 7.5) | Solubility (pH 8.0) | solubility at 18 h (pH 4.0) [µM] | solubility at 18 h (pH 5.0) [µM] | Solubility (pH 6.0) | Solubility (pH 4.0) | Solubility (pH 5.0)
CC(C)C[C@H](NC(=O)CNC(=O)[C@H](CO)NC(=O)[C@H](C)NC(=O)CC[C@H](NC(=O)CCCCCCCCCCCCCCCCCCC(=O)O)C(=O)O)C(=O)N[C@@H](CO)C(=O)N[C@H](C(=O)N[C@@H](CC(C)C)C(=O)N[C@H](C(=O)N[C@@H](CC(C)C)C(=O)NCC(=O)N[C@@H](CCCNC(=N)N)C(=O)N[C@@H](CC(C)C)C(=O)N[C@@H](CO)C(=O)N[C@@H](CCC(N)=O)C(=O)N[C@@H](CCC(=O)O)C(=O)N[C@@H](CC(C)C)C(=O)N[C@@H](Cc1cnc[nH]1)C(=O)N[C@@H](CCC(=O)O)C(=O)N[C@@H](CC(C)C)C(=O)N[C@@H](CCC(N)=O)C(=O)N[C@H](C(=O)N[C@@H](Cc1ccc(O)cc1)C(=O)N1CCC[C@H]1C(=O)N[C@@H](CCCNC(=N)N)C(=O)N[C@H](C(=O)N[C@@H](CCC(=O)O)C(=O)N[C@H](C(=O)NCC(=O)N[C@@H](CO)C(=O)N[C@@H](CCC(N)=O)C(=O)N[C@H](C(=O)N[C@@H](Cc1ccc(O)cc1)C(N)=O)[C@@H](C)O)[C@@H](C)O)[C@@H](C)O)[C@@H](C)O)C(C)C)[C@@H](C)O [compound 126, [N-terminal(C20 diacid-gGlu), des1, 4G, 8L, 9V, 15Q, 21Q, 23Y, 30S, 31Q, 32T, 33Y]mimylin] ({C20 diacid-γGlu}-ASGLSTLVLGRLSQELHELQTYPRTETGSQTY-NH2) | ≧200 μM | 161 (≈ 642 µg/mL) | ≧200 μM | ≧200 μM | ≧200 μM | ≧200 μM |  |  |  |  | 
CC(C)C[C@H](NC(=O)CNC(=O)[C@H](CO)NC(=O)[C@H](C)NC(=O)CC[C@H](NC(=O)CCCCCCCCCCCCCCCCCCC(=O)O)C(=O)O)C(=O)N[C@@H](CO)C(=O)N[C@H](C(=O)N[C@@H](C)C(=O)N[C@@H](C)C(=O)N[C@@H](CC(C)C)C(=O)NCC(=O)N[C@@H](CCCNC(=N)N)C(=O)N[C@@H](CC(C)C)C(=O)N[C@@H](CO)C(=O)N[C@H](C(=O)N[C@@H](CCC(=O)O)C(=O)N[C@@H](CC(C)C)C(=O)N[C@@H](Cc1cnc[nH]1)C(=O)N[C@@H](CCC(=O)O)C(=O)N[C@@H](CC(C)C)C(=O)N[C@@H](CCC(=O)O)C(=O)N[C@H](C(=O)N[C@@H](Cc1ccc(O)cc1)C(=O)N1CCC[C@H]1C(=O)N[C@@H](CCCNC(=N)N)C(=O)N[C@H](C(=O)N[C@@H](CCC(=O)O)C(=O)N[C@H](C(=O)NCC(=O)N[C@@H](CO)C(=O)NCC(=O)N[C@H](C(=O)N[C@@H](Cc1ccc(O)cc1)C(N)=O)[C@@H](C)O)[C@@H](C)O)[C@@H](C)O)[C@@H](C)O)[C@@H](C)O)[C@@H](C)O [compound 112, [N-terminal(C20 diacid-gGlu), des1, 4G, 15T, 21E, 23Y, 30S, 31G, 32T, 33Y]mimylin] ({C20 diacid-γGlu}-ASGLSTAALGRLSTELHELETYPRTETGSGTY-NH2) | ≧200 μM |  | ≧200 μM | ≧200 μM | ≧200 μM | ≧200 μM | 132 (≈ 505 µg/mL) | 22 (≈ 84.1 µg/mL) | ≧200 μM |  | 
CC(C)C[C@H](NC(=O)[C@H](CCC(=O)O)NC(=O)[C@H](Cc1cnc[nH]1)NC(=O)[C@H](CC(C)C)NC(=O)[C@H](CCC(=O)O)NC(=O)[C@H](C)NC(=O)[C@H](CO)NC(=O)[C@H](CC(C)C)NC(=O)[C@H](CCCNC(=N)N)NC(=O)CNC(=O)[C@@H](NC(=O)[C@@H](NC(=O)[C@H](C)NC(=O)[C@@H](NC(=O)[C@H](CO)NC(=O)[C@@H](NC(=O)[C@H](CCC(=O)O)NC(=O)[C@H](CO)NC(=O)[C@H](C)NC(=O)CC[C@H](NC(=O)CCCCCCCCCCCCCCCCC(=O)O)C(=O)O)C(C)C)[C@@H](C)O)C(C)C)C(C)C)C(=O)N[C@@H](C)C(=O)N[C@H](C(=O)N[C@@H](CC(C)C)C(=O)N1CCC[C@H]1C(=O)N[C@@H](CCCNC(=N)N)C(=O)N[C@H](C(=O)N[C@@H](CCC(=O)O)C(=O)N[C@H](C(=O)NCC(=O)N[C@@H](CO)C(=O)NCC(=O)N[C@@H](CO)C(=O)N1CCC[C@H]1C(N)=O)[C@@H](C)O)[C@@H](C)O)[C@@H](C)O [compound 96, [N-terminal(C18 diacid-gGlu), des1, 5V, 9V, 10V, 30S, 31G]mimylin] ({C18 diacid-γGlu}-ASEVSTAVVGRLSAELHELATLPRTETGSGSP-NH2) | ≧200 μM |  | ≧200 μM | ≧200 μM | ≧200 μM | ≧200 μM | 177 (≈ 646 µg/mL) | 45 (≈ 164 µg/mL) | ≧200 μM |  | 
CC(C)C[C@H](NC(=O)CNC(=O)[C@H](CO)NC(=O)[C@H](C)NC(=O)CC[C@H](NC(=O)CCCCCCCCCCCCCCCCCCC(=O)O)C(=O)O)C(=O)N[C@@H](CO)C(=O)N[C@H](C(=O)N[C@@H](C)C(=O)N[C@H](C(=O)N[C@@H](CC(C)C)C(=O)NCC(=O)N[C@@H](CCCNC(=N)N)C(=O)N[C@@H](CC(C)C)C(=O)N[C@@H](CO)C(=O)N[C@@H](CCC(N)=O)C(=O)N[C@@H](CCC(=O)O)C(=O)N[C@@H](CC(C)C)C(=O)N[C@@H](Cc1cnc[nH]1)C(=O)N[C@@H](CCC(=O)O)C(=O)N[C@@H](CC(C)C)C(=O)N[C@@H](CCC(N)=O)C(=O)N[C@H](C(=O)N[C@@H](Cc1ccc(O)cc1)C(=O)N1CCC[C@H]1C(=O)N[C@@H](CCCNC(=N)N)C(=O)N[C@H](C(=O)N[C@@H](CCC(=O)O)C(=O)N[C@H](C(=O)NCC(=O)N[C@@H](CO)C(=O)NCC(=O)N[C@H](C(=O)N[C@@H](Cc1ccc(O)cc1)C(N)=O)[C@@H](C)O)[C@@H](C)O)[C@@H](C)O)[C@@H](C)O)[C@@H](C)O)[C@@H](C)O [compound 124, [N-terminal(C20 diacid-gGlu), des1, 4G, 9T, 15Q, 21Q, 23Y, 30S, 31G, 32T, 33Y]mimylin] ({C20 diacid-γGlu}-ASGLSTATLGRLSQELHELQTYPRTETGSGTY-NH2) | ≧200 μM |  | ≧200 μM | ≧200 μM | ≧200 μM | ≧200 μM |  | 61 (≈ 237 µg/mL) | ≧200 μM | ≧200 μM | 
CC(C)C[C@H](NC(=O)[C@H](C)NC(=O)[C@H](C)NC(=O)[C@@H](NC(=O)[C@H](CO)NC(=O)[C@H](CC(C)C)NC(=O)[C@H](CCC(N)=O)NC(=O)[C@H](CO)NC(=O)[C@H](C)NC(=O)CC[C@H](NC(=O)CCCCCCCCCCCCCCCCC(=O)O)C(=O)O)[C@@H](C)O)C(=O)NCC(=O)N[C@@H](CCCNC(=N)N)C(=O)N[C@@H](CC(C)C)C(=O)N[C@@H](CO)C(=O)N[C@@H](C)C(=O)N[C@@H](CCC(=O)O)C(=O)N[C@@H](CC(C)C)C(=O)N[C@@H](Cc1cnc[nH]1)C(=O)N[C@@H](CCC(=O)O)C(=O)N[C@@H](CC(C)C)C(=O)N[C@@H](C)C(=O)N[C@H](C(=O)N[C@@H](CC(C)C)C(=O)N1CCC[C@H]1C(=O)N[C@@H](CCCNC(=N)N)C(=O)N[C@H](C(=O)N[C@@H](CCC(=O)O)C(=O)N[C@H](C(=O)NCC(=O)N[C@@H](CO)C(=O)NCC(=O)N[C@@H](CO)C(=O)N1CCC[C@H]1C(N)=O)[C@@H](C)O)[C@@H](C)O)[C@@H](C)O [compound 78, [N-terminal(C18 diacid-gGlu), des1, 4Q, 30S, 31G]mimylin] ({C18 diacid-γGlu}-ASQLSTAALGRLSAELHELATLPRTETGSGSP-NH2) | ≧200 μM |  | ≧200 μM | ≧200 μM | ≧200 μM | ≧200 μM |  |  | ≧200 μM | ≧200 μM | ≧200 μM
CC(C)C[C@H](NC(=O)[C@H](CCC(=O)O)NC(=O)[C@H](Cc1cnc[nH]1)NC(=O)[C@H](CC(C)C)NC(=O)[C@H](CCC(=O)O)NC(=O)[C@H](C)NC(=O)[C@H](CO)NC(=O)[C@H](CC(C)C)NC(=O)[C@H](CCCNC(=N)N)NC(=O)CNC(=O)[C@H](CC(C)C)NC(=O)[C@@H](NC(=O)[C@H](C)NC(=O)[C@@H](NC(=O)[C@H](CO)NC(=O)[C@H](CC(C)C)NC(=O)[C@@H]1CCCN1C(=O)[C@@H]1CCCN1C(=O)[C@H](C)NC(=O)[C@H](CCC(=O)O)NC(=O)CCCCCCCCCCCCCCCCC(=O)O)[C@@H](C)O)C(C)C)C(=O)N[C@@H](C)C(=O)N[C@H](C(=O)N[C@@H](CC(C)C)C(=O)N1CCC[C@H]1C(=O)N[C@@H](CCCNC(=N)N)C(=O)N[C@H](C(=O)N[C@@H](CCC(=O)O)C(=O)N[C@H](C(=O)NCC(=O)N1CCC[C@H]1C(=O)N[C@@H](CCC(=O)O)C(=O)N[C@@H](CO)C(=O)N1CCC[C@H]1C(N)=O)[C@@H](C)O)[C@@H](C)O)[C@@H](C)O [compound 38, [N-terminal(C18 diacid), 3P, 4P, 9V]mimylin] ({C18 diacid}-EAPPLSTAVLGRLSAELHELATLPRTETGPESP-NH2) | ≧200 μM |  | ≧200 μM | ≧200 μM | ≧200 μM | ≧200 μM |  |  | ≧200 μM | ≧200 μM | ≧200 μM
